Consider five compounds from patent publication US8691829B2, “Treatment of liver disorders with PI3K inhibitors” (Gilead Calistoga LLC, priority 2009, dated 2014).

One data set deals with PI3Kδ (Homo sapiens (Human), UniProt O00329). The data set can be described thus: Activity of selected PI3K inhibitors, Ki (PI3Kδ). Format: biochemical. An excerpt:
(§1) The compounds of formula (3) are readily prepared from available starting material using methods that are known in the art. […] Scheme A in that application provides a route by which the thienopyrimidinone portions of compounds of formula (2a) can be prepared, and Schemes B-G provide routes by which the thienopyrimidinone portions of compounds of formula (2b) can be prepared. […] These references also provide methods for determining the activity of these compounds as inhibitors of PI3Kδ; thus those methods are known in the art.

In a further data set the target is PI3Kα (Homo sapiens (Human), UniProt P42336). The data set can be described thus: Selectivity of selected PI3K inhibitors (α/δ). Format: biochemical. The following applies: ratio PI3Kα relative to PI3Kδ.
From the text: as §1

Another data set deals with PI3Kβ (Homo sapiens (Human), UniProt P42338). The data set can be described thus: Selectivity of selected PI3K inhibitors (β/δ). The data set is classed as biochemical. The following applies: ratio PI3Kβ relative to PI3Kδ.
From the text: as §1

A further data set addresses PI3Kγ (Homo sapiens (Human), UniProt P48736). The data set can be described thus: Selectivity of selected PI3K inhibitors (γ/δ). The data set is classed as biochemical. The following applies: ratio PI3Kγ relative to PI3Kδ.
From the text: as §1

Another data set concerns hepatocytes. The following applies: hepatocytes exposed to conditions that generate reactive oxygen species; Kohli et al. 2007; cited from earlier work.
The subject of another data set is steatosis development. The following applies: diet-induced p85 expression and steatosis; Kohli et al. 2007; cited from earlier work.

Chain of PI3Kβ (P42338 whole entry, species assumed): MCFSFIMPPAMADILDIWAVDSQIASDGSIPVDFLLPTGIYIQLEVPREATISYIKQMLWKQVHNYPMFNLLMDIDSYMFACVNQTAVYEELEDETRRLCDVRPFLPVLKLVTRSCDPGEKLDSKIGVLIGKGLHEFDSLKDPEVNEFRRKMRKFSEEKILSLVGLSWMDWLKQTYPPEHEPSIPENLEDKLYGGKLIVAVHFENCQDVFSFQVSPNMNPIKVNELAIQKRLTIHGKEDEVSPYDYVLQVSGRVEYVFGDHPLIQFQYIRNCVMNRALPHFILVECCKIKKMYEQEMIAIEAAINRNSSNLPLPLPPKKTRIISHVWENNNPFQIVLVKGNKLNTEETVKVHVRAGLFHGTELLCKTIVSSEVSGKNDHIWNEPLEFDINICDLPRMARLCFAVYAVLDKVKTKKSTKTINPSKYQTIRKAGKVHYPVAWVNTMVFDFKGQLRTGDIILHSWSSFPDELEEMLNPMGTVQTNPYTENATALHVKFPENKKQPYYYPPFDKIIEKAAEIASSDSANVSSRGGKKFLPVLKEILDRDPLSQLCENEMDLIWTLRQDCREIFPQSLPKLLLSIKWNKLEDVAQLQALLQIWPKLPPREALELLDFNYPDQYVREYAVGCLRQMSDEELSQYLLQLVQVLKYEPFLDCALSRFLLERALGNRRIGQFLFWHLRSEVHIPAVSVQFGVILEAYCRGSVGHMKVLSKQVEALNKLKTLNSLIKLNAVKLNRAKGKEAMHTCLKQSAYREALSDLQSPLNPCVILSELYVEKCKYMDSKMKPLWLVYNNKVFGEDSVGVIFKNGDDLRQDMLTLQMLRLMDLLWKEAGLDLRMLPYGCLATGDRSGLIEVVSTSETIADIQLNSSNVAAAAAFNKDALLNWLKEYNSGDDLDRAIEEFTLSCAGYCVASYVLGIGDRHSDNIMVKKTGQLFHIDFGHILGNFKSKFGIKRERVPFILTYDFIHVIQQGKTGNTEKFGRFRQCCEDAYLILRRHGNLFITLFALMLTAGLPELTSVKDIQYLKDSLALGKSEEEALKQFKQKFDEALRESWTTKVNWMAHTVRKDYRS
Chain of PI3Kβ (P27986 whole entry partner, species assumed): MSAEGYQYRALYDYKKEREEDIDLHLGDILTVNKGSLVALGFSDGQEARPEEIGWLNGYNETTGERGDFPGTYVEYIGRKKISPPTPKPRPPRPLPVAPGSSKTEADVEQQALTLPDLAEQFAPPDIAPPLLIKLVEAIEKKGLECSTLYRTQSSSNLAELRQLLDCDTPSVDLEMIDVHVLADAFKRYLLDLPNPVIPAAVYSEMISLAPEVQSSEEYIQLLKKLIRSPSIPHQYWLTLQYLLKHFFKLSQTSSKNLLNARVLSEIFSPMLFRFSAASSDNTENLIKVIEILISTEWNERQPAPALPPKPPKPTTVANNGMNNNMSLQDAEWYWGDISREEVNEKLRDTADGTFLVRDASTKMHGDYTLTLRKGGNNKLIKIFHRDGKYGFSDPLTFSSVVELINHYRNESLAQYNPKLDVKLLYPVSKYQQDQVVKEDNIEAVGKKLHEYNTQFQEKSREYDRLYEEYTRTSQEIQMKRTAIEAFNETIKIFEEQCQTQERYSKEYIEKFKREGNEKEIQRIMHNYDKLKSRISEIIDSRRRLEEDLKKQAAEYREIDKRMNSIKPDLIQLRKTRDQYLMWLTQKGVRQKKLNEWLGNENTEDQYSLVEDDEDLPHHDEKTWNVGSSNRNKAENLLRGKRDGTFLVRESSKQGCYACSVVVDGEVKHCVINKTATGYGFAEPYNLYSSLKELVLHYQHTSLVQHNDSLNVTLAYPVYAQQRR
Chain of PI3Kδ (O00329 whole entry, species assumed): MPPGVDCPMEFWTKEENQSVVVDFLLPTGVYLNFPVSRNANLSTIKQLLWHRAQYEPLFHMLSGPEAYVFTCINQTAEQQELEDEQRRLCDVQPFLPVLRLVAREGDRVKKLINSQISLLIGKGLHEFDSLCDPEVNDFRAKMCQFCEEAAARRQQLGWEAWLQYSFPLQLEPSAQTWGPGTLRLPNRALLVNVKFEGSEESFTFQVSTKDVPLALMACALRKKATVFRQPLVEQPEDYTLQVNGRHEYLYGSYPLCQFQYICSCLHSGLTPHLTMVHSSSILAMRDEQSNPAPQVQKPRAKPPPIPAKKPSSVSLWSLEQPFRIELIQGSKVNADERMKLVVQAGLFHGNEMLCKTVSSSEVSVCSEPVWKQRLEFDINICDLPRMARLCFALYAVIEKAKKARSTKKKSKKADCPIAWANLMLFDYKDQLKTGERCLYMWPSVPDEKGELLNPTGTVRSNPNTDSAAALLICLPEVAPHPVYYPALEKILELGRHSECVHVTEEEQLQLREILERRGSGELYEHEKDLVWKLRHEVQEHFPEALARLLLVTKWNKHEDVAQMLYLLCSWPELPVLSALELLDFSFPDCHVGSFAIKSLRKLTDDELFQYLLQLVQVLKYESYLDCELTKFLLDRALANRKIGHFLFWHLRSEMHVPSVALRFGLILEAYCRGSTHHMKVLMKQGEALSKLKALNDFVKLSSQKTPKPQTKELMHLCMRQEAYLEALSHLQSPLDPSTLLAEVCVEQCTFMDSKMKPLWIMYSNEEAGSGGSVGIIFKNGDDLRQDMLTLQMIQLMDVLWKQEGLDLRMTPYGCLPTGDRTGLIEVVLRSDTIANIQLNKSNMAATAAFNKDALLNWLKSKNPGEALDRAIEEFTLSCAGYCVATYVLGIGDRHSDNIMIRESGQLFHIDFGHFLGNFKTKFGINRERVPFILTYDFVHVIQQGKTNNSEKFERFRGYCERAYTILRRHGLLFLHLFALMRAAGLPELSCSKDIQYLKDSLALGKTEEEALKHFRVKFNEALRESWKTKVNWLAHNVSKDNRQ
Chain of PI3Kδ (P27986 whole entry partner, species assumed): as the sequence (P27986 whole entry partner, species assumed) above
Chain of PI3Kα (P42336 whole entry, species assumed): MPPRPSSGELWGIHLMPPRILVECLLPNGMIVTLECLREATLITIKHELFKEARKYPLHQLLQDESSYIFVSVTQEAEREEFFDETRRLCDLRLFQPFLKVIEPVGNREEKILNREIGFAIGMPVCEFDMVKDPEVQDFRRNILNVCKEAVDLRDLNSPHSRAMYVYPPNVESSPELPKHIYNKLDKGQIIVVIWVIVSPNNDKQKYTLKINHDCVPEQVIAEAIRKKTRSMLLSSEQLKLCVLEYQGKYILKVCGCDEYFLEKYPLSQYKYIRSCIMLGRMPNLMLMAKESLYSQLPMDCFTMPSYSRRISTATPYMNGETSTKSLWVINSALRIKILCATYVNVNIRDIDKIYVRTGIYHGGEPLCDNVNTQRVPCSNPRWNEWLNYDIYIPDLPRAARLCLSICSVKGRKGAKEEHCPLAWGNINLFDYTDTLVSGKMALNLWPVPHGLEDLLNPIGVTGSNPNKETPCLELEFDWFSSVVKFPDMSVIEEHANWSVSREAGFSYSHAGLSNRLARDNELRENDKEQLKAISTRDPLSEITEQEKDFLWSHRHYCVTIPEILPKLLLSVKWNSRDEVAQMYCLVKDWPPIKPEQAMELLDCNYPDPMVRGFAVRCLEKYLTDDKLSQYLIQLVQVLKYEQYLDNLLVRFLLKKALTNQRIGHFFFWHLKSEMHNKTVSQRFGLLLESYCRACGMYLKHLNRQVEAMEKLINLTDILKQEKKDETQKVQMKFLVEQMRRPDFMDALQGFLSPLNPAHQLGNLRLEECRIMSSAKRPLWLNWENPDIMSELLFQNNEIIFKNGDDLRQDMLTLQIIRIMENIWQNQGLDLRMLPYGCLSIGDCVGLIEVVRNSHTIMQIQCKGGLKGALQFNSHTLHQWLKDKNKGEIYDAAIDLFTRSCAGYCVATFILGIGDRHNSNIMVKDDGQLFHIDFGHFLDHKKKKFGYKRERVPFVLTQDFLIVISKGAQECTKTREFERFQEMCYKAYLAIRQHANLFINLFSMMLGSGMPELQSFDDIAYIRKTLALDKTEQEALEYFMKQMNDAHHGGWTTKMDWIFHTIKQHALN
Chain of PI3Kα (P27986 whole entry partner, species assumed): as the sequence (P27986 whole entry partner, species assumed) above
Chain of PI3Kγ (P48736 whole entry, species assumed): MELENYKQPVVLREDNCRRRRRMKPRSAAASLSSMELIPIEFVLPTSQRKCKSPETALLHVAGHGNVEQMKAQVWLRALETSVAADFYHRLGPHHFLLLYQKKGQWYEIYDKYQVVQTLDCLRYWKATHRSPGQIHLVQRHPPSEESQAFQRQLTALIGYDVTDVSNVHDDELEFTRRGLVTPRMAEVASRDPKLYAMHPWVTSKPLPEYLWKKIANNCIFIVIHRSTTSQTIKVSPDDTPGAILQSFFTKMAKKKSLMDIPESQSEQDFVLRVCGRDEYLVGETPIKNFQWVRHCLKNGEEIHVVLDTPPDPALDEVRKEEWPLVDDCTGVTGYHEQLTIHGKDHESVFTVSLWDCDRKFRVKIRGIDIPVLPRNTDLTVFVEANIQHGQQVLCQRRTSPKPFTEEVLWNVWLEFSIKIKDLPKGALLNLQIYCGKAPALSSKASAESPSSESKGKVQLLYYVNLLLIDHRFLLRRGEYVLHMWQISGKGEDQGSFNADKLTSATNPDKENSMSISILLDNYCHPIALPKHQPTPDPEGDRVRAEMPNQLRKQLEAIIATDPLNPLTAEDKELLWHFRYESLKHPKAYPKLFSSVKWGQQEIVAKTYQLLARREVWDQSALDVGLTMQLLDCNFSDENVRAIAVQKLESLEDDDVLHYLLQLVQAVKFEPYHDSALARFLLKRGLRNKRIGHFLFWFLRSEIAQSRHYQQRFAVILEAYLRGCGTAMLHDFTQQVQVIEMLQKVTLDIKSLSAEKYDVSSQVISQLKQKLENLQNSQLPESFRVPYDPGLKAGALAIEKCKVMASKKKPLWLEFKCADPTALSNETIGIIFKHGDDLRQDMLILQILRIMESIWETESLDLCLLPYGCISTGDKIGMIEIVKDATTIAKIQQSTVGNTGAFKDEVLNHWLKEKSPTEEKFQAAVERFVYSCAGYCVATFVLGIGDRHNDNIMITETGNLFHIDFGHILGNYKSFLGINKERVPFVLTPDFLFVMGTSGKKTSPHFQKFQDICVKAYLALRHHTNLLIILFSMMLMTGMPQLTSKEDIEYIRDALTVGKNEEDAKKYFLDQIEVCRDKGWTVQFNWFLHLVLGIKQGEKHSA

As to `CC(c1nc2ccsc2c(=O)n1-c1ccccc1)n1cnc2c(N)ncnc21` (stereo not drawn) [3d], the Ki on PI3Kδ worked out at 40 nM. Besides, at PI3Kα, the “Selectivity (α/δ)” value worked out at 1447. In addition, the “Selectivity (β/δ)” value at PI3Kβ was 126. Besides, on PI3Kγ, the “Selectivity (γ/δ)” value stood at 187.
On the same counts, the results for `CC(Nc1ncnc2[nH]cnc12)c1nc2ccsc2c(=O)n1-c1ccccc1` (stereo not drawn) [3e] are 6 nM, 528, 123 and 28.
Consider `Cc1cccc2nc(C(C)n3cnc4c(N)ncnc43)n(-c3ccccc3)c(=O)c12` (stereo not drawn) [4a], for which the affinity on PI3Kδ, expressed as Ki, was 7 nM. In addition, the “Selectivity (α/δ)” value at PI3Kα was found to be 2963. The “Selectivity (β/δ)” value on PI3Kβ is 119. At PI3Kγ, the “Selectivity (γ/δ)” value worked out at 61.
For `Cc1cccc2nc(C(C)Nc3ncnc4[nH]cnc34)n(-c3ccccc3)c(=O)c12` (stereo not drawn) [4b], the affinity at PI3Kδ, expressed as Ki, was 5 nM. Besides, at PI3Kα, the “Selectivity (α/δ)” value turned out to be 132. For the same compound, the “Selectivity (β/δ)” value on PI3Kβ is reported as 29. Also, the “Selectivity (γ/δ)” value on PI3Kγ is on record as 12.
As for `O=c1cc(N2CCOCC2)oc2c(-c3ccccc3)cccc12` [LY294002], the “steatosis (accumulation of fat) in hepatocytes” value in the data set on hepatocytes is listed as “can be inhibited”. Besides, in the data set on steatosis development, the steatosis development result is recorded as “blocked steatosis development”.
